Source: patent US20240400560A1, “BICYCLIC HETEROCYCLIC DERIVATIVE HAVING VIRAL GROWTH INHIBITORY ACTIVITY AND PHARMACEUTICAL COMPOSITION CONTAINING SAME” (Shionogi & Co., Ltd., priority 2021, published 2024)
Read-outs that look alike come from different tables or passages of the source.

Columns and labels:
[1] = tested on: SARS-CoV-2; assay: Inhibitory activity of cytopathic effect (CPE) in HEK293T/ACE2-TMPRSS2 cells; format: cell-based; conditions: Severe acute respiratory syndrome coronavirus 2, HEK-293T, 72 h
[2] = molecular target: SARS-CoV-2 3CL protease (Severe acute respiratory syndrome coronavirus 2, UniProt P0DTD1); assay: Inhibitory activity test against SARS-CoV-2 3CL proteases; format: biochemical
[3] = IC50 (50% SARS-CoV-2 3CL protease inhibitory concentration)
[4] = HEK293T/ACE2-TMPRSS2 cells, cultured 3 days, CellTiter-Glo 2.0 luminescence, read-out: EC50 (50% SARS-CoV-2 infected cell death inhibitory concentration)
[5] = read-out: IC50 (50% SARS-CoV-2 3CL protease inhibitory concentration)
[6] = 50% SARS-CoV-2 infected cell death inhibitory concentration, HEK293T/ACE2-TMPRSS2 cells, CellTiter-Glo 2.0 after 3 days culture, read-out: EC50

| SMILES | EC50 [1, 4] [nM] | IC50 [2, 5] [nM] | other results |
| --- | --- | --- | --- |
| COc1nc(N2[C@@H]3CC[C@H]2CNC3)cc2c1c(=O)n(-c1cnc3cc(F)ccn13)c(=O)n2-c1ccc(F)c(Cl)c1 [Compound I-0729] | – | – | EC50 ([1]; read-out: EC50 (50% SARS-CoV-2 infected cell death inhibitory concentration)): < 100 nM; IC50 [2, 3]: < 100 nM |
| Cn1cnc(Cn2c(=O)c3c4nccnc4c(-c4cc5c(cc4Cl)NC(=O)C5)cc3n(Cc3cc(F)c(F)c(F)c3)c2=O)n1 [Compound I-0933] | 100 to 1000 | < 100 | – |
| COc1nc(N2CCC(S(C)(=O)=O)C2)cc2c1c(=O)n(-c1cncc(Cl)c1)c(=O)n2-c1ccc(F)c(Cl)c1 (centres unmarked) [Compound I-0974] | < 100 | < 100 | – |
| COc1cc(-c2cc([C@@H](C)O)ccc2Cl)cc2c1c(=O)n(Cc1ncn(C)n1)c(=O)n2Cc1cc(F)c(F)c(F)c1 [Compound I-0839] | 100 to 1000 | < 100 | – |
| Cn1cnc(Cn2c(=O)c3c4c(c(N5CCC(F)(F)CC5)cc3n(Cc3cc(F)c(F)c(F)c3)c2=O)CCO4)n1 [Compound I-0565] | < 100 | < 100 | – |
| Cn1cnc(Cn2c(=O)c3c4c(c(N5CCC(F)(F)C5)cc3n(Cc3cc(F)c(F)c(Cl)c3)c2=O)CCO4)n1 [Compound I-0814] | < 100 | < 100 | – |
| COc1nc(N2CCC(F)(F)C2)cc2c1c(=O)n(-c1cnc3cc(F)c(F)cn13)c(=O)n2-c1ccc(F)c(Cl)c1 [Compound I-1009] | < 100 | < 100 | – |
| COc1nc(N2CC[C@@H](C#N)C2)cc2c1c(=O)n(-c1cncc(OCF)c1)c(=O)n2-c1ccc(F)c(Cl)c1 [Compound I-0941] | < 100 | < 100 | – |
| COc1nc(N2CC[C@@H](C#N)C2)cc2c1c(=O)n(-c1cncc(C#N)c1)c(=O)n2-c1ccc(F)c(F)c1 [Compound I-0984] | < 100 | < 100 | – |
| COc1ccc(Cl)c(-c2cc(OC)c3c(=O)n(Cc4ncn(C)n4)c(=O)n(Cc4cc(F)c(F)c(F)c4)c3c2)c1F [Compound I-0557] | 100 to 1000 | < 100 | – |
| COc1nc(N2CCC3(COC3)C2)cc2c1c(=O)n(-c1cnc3cc(F)ccn13)c(=O)n2-c1ccc(F)c(Cl)c1 [Compound I-1039] | < 100 | < 100 | – |
| C=Cc1nc2c(=O)n(Cc3ncn(C)n3)c(=O)n(Cc3cc(F)c(F)c(F)c3)c2cc1-c1cc(C#N)ccc1Cl [Compound I-0705] | < 100 | < 100 | – |
| CCn1cnc(Cn2c(=O)c3c(OC)nc(N4CC[C@@H](F)C4)cc3n(Cc3cc(F)c(F)c(F)c3)c2=O)n1 [Compound I-0927] | < 100 | < 100 | – |
| COc1nc(N2CC[C@@H](C#N)C2)cc2c1c(=O)n(-c1cncc(F)c1)c(=O)n2-c1ccc(F)c(F)c1 [Compound I-0990] | – | 6.8 | EC50 [1, 6]: 8.89 nM |
| COCCN(C)c1cc2c(c(OC)n1)c(=O)n(-c1cnc3cc(F)ccn13)c(=O)n2-c1ccc(F)c(Cl)c1 [Compound I-0653] | – | 14 | EC50 [1, 6]: 11.6 nM |
| Cn1cnc(Cn2c(=O)c3c4nccnc4c(-c4cc(C#N)ccc4Cl)cc3n(Cc3cc(F)c(F)c(F)c3)c2=O)n1 [Compound I-0934] | < 100 | < 100 | – |
| COc1nc(N2CCOC[C@H]2C)cc2c1c(=O)n(-c1cnc3cc(F)ccn13)c(=O)n2-c1ccc(F)c(Cl)c1 [Compound I-1054] | < 100 | < 100 | – |
| COc1nc(N2CC[C@@H](O)C2)cc2c1c(=O)n(-c1cnc3ccc(C#N)cn13)c(=O)n2-c1ccc(F)c(Cl)c1 [Compound I-0992] | < 100 | < 100 | – |
| COc1nc(N2CCC(F)(F)C2)cc2c1c(=O)n(-c1cncc(C)n1)c(=O)n2-c1ccc(F)c(Cl)c1 [Compound I-0997] | < 100 | < 100 | – |
| Cn1cnc(Cn2c(=O)c3c4nccnc4c(-c4cc(C#N)ccc4Cl)cc3n(Cc3cc(F)c(F)c(Cl)c3)c2=O)n1 [Compound I-0809] | < 100 | < 100 | – |
| COc1nc(N2CC[C@@H](C(F)F)C2)cc2c1c(=O)n(-c1cnc3cc(F)ccn13)c(=O)n2-c1ccc(F)c(Cl)c1 [Compound I-0983] | < 100 | < 100 | – |
| Cn1cnc(Cn2c(=O)c3c4nccnc4c(N4CCCC4)cc3n(Cc3cc(F)c(F)c(F)c3)c2=O)n1 [Compound I-0932] | < 100 | < 100 | – |
| COc1nc(N2CC(C)(OC)C2)cc2c1c(=O)n(-c1cnc3cc(F)ccn13)c(=O)n2-c1ccc(F)c(Cl)c1 [Compound I-0762] | < 100 | < 100 | – |
| Cn1cnc(Cn2c(=O)c3c4nccnc4c(-c4cc5c(cc4Cl)NC(=O)C5)cc3n(Cc3cc(F)c(F)c(Cl)c3)c2=O)n1 [Compound I-0823] | – | 0.75 | EC50 [1, 6]: 197 nM |
| COc1nc(N2CC[C@@H](O)C2)cc2c1c(=O)n(-c1cnc3cc(F)c(Cl)cn13)c(=O)n2-c1ccc(F)c(Cl)c1 [Compound I-0952] | < 100 | < 100 | – |

| SMILES | EC50 [1, 4] [nM] | IC50 [2, 5] [nM] | other results |
| --- | --- | --- | --- |
| COc1nc2c(=O)n(Cc3ncn(C)n3)c(=O)n(Cc3cc(Cl)ccc3Cl)c2cc1-c1cc(C#N)ccc1Cl [Compound I-0713] | 100 to 1000 | < 100 | – |
| COc1cc(-c2c(Cl)ccc3c2CC(=O)N3C)cc2c1c(=O)n(Cc1ncn(C)n1)c(=O)n2Cc1cc(F)c(F)c(F)c1 [Compound I-0869] | < 100 | < 100 | – |
| COc1nc2cc(-c3cc(OC)c4c(=O)n(Cc5ncn(C)n5)c(=O)n(Cc5cc(F)c(F)c(Cl)c5)c4c3)c(Cl)cc2[nH]1 [Compound I-0858] | – | 2.4 | EC50 [1, 6]: 44.1 nM |
| COc1cc(-c2cc3c(C#N)c[nH]c3cc2Cl)cc2c1c(=O)n(Cc1ncn(C)n1)c(=O)n2Cc1cc(F)c(F)c(F)c1 [Compound I-0902] | – | 8.2 | EC50 [1, 6]: 104 nM |
| Cn1cnc(Cn2c(=O)c3c4ncccc4c(-c4cc(C#N)ccc4Cl)cc3n(Cc3cc(F)c(F)c(F)c3)c2=O)n1 [Compound I-0632] | – | 3.1 | EC50 [1, 6]: 50.1 nM |
| [2H]C([2H])([2H])O[C@@H]1CCN(c2cc3c(c(OC)n2)c(=O)n(-c2cnc4cc(F)ccn24)c(=O)n3-c2cc(Cl)c(F)c(OC)c2)C1 [Compound I-0764] | < 100 | < 100 | – |
| COc1nc(N2CCC(S(C)(=O)=O)C2)cc2c1c(=O)n(-c1cnc3cc(F)ccn13)c(=O)n2-c1ccc(F)c(Cl)c1 (centres unmarked) [Compound I-1007] | 100 to 1000 | < 100 | – |
| COc1nc(N2CC[C@@H](OC)C2)cc2c1c(=O)n(-c1cnc3cc(F)ccn13)c(=O)n2-c1ccc(F)c(Cl)c1 [Compound I-0740] | < 100 | < 100 | – |
| Cc1cnc2c3c(=O)n(Cc4ncn(C)n4)c(=O)n(Cc4cc(F)c(F)c(F)c4)c3cc(-c3cc(C#N)ccc3Cl)n12 [Compound I-0643] | – | 4.3 | EC50 [1, 6]: 520 nM |
| COC[C@@H]1CCN(c2cc3c(c(OC)n2)c(=O)n(-c2cncc(Cl)c2)c(=O)n3-c2ccc(F)c(Cl)c2)C1 [Compound I-1008] | < 100 | < 100 | – |
| COc1nc(N2CCCC2)cc2c1c(=O)n(-c1cnc3cc(F)ccn13)c(=O)n2-c1ccc(F)c(Cl)c1 [Compound I-0752] | < 100 | < 100 | – |
| [2H]C([2H])([2H])O[C@@H]1CCN(c2cc3c(c(OC)n2)c(=O)n(-c2cnc4cc(F)ccn24)c(=O)n3-c2ccc(F)c(F)c2)C1 [Compound I-1005] | – | 8.9 | EC50 [1, 6]: 8.65 nM |
| Cn1cnc(Cn2c(=O)c3c4nccnc4c(-c4c(F)cc(F)cc4F)cc3n(Cc3cc(F)c(F)c(Cl)c3)c2=O)n1 [Compound I-0571] | < 100 | < 100 | – |
| COc1nc2c(=O)n(Cc3ncn(C)n3)c(=O)n(Cc3cc(F)c(F)c(Cl)c3)c2cc1-c1nc(C(C)(C)O)ccc1Cl [Compound I-0880] | – | 4.4 | EC50 [1, 6]: 17.8 nM |
| Cn1cnc(Cn2c(=O)c3c4nccnc4c(N4CC(F)C4)cc3n(Cc3cc(F)c(F)c(Cl)c3)c2=O)n1 [Compound I-0573] | < 100 | < 100 | – |
| COc1nc2c(=O)n(Cc3ncn(C)n3)c(=O)n(Cc3cc(F)c(F)c(Cl)c3)c2cc1-c1cc(C(C)(C)O)c(F)cc1Cl [Compound I-0816] | < 100 | < 100 | – |
| COc1nc(N2[C@@H]3CC[C@H]2CNC3)cc2c1c(=O)n(-c1cnc3ccc(Cl)cn13)c(=O)n2Cc1cc(F)c(F)c(F)c1 [Compound I-0671] | – | – | EC50 [1]: 21 nM; IC50 [2, 3]: 3.3 nM |
| COc1nc(N2CC[C@@H](C#N)C2)cc2c1c(=O)n(-c1cnc3cc(F)ccn13)c(=O)n2Cc1cc(F)c(F)c(F)c1 [Compound I-0732] | < 100 | < 100 | – |
| N#Cc1ccc(Cl)c(-c2cc3c(c(=O)n(-c4cnc5ccccn45)c(=O)n3Cc3cc(F)c(F)c(F)c3)c3nccnc23)c1 [Compound I-0844] | < 100 | < 100 | – |
| COc1nc(N(C)C(C)C)cc2c1c(=O)n(-c1cnc3cc(F)ccn13)c(=O)n2-c1ccc(F)c(Cl)c1 [Compound I-1034] | < 100 | < 100 | – |
| Cc1c(-c2cc(C#N)ccc2Cl)cc2c(c1F)c(=O)n(Cc1ncn(C)n1)c(=O)n2Cc1cc(F)c(F)c(Cl)c1 [Compound I-0637] | < 100 | < 100 | – |
| COCCCc1cc2c(c(OC)n1)c(=O)n(-c1cnc3cc(F)ccn13)c(=O)n2-c1ccc(F)c(Cl)c1 [Compound I-1062] | < 100 | < 100 | – |
| COc1nc2c(=O)n(Cc3ncn(C)n3)c(=O)n(Cc3cc(F)c(F)c(Cl)c3)c2cc1-c1nc(C)ccc1Cl [Compound I-0579] | – | 5.8 | EC50 [1, 6]: 12.1 nM |
| COc1cc(-c2cn3nncc3cc2Cl)cc2c1c(=O)n(Cc1ncn(C)n1)c(=O)n2Cc1cc(F)c(F)c(F)c1 [Compound I-0914] | < 100 | < 100 | – |
